Experiment [1] has as its system Leishmania donovani. The experiment can be described thus: Antileishmanial activity against Leishmania donovani promastigotes infected in hamster assessed as reduction in parasite load in spleen. Type of experiment: functional, organism-based.
Experiment [2] relates to Leishmania donovani. As to the kind of experiment: Antileishmanial activity against Leishmania donovani MHOM/IN/1983/AG83 promastigote assessed as reduction in parasite growth incubated for 12 hrs by MTT assay. Type of experiment: functional, organism-based. The following applies: MHOM/IN/1983/AG83, 12 h. For orientation: Tetrazolium dyes change colour on reduction, which living cells bring about.

Experiment [3] concerns the target T1, Arginase (Leishmania amazonensis, UniProt O96394). As to the kind of experiment: Inhibition of Leishmania amazonensis Arginase.
Experiment [4] deals with T1, Arginase. The experiment can be described thus: Inhibition of Leishmania amazonensis Arginase assessed as inhibition constant.
Experiment [5] concerns Leishmania amazonensis. The experiment can be described thus: Antiprotozoal activity against Leishmania amazonensis axenic amastigotes assessed as growth inhibition measured after 5 days by MTT assay. The conditions noted are these: 120 h. Type of experiment: functional, organism-based.
Experiment [6] deals with Leishmania infantum. The experiment can be described thus: Antileishmanial activity against Leishmania infantum MCAN/ES/ 89/IPZ229/1/89 axenic amastigotes assessed as reduction in parasite viability treated for 24 hrs by PI staining based flow cytometry. The conditions noted are these: MCAN/ES/ 89/IPZ229/1/89, 24 h. Type of experiment: functional, organism-based. On the technique in general: In flow cytometry, cells or beads pass a laser one at a time.

The nature of experiment [7]: Inhibition of Leishmania infantum Trypanothione reductase.
The test system of experiment [8] is Leishmania infantum. The experiment can be described thus: Antileishmanial activity against Leishmania infantum MCAN/ES/ 89/IPZ229/1/89 promastigote assessed as reduction in parasite viability incubated for 24 hrs by PI staining based flow cytometry. Type of experiment: functional, organism-based. The following applies: MCAN/ES/ 89/IPZ229/1/89, 24 h.
The test system of experiment [9] is Leishmania infantum. As to the kind of experiment: Inhibition of Leishmania infantum Arginase expressed in Escherichia coli BL21 (DE3) at 100 uM by enzymatic assay relative to control.
Experiment [10] concerns Leishmania infantum. The experiment can be described thus: Inhibition of Leishmania infantum promastigotes Arginase expressed in Escherichia coli BL21 (DE3) at 100 uM by enzymatic assay relative to control.
The test system of experiment [11] is Leishmania amazonensis. As to the kind of experiment: Antileishmanial activity against Leishmania amazonensis promastigotes assessed as reduction in parasite growth after 72 hrs by CCK-8 assay. Type of experiment: functional, organism-based.
Experiment [12] concerns Leishmania infantum. As to the kind of experiment: Antileishmanial activity against GFP-expressing Leishmania infantum intracellular amastigotes infected in human THP-1 derived macrophage cells assessed as reduction in parasite viability measured for 72 hrs by resazurin/alamar blue fluorometric assay. The conditions noted are these: THP-1, 72 h. Type of experiment: functional, organism-based. (The colour change of resazurin is a common sign of viable cells or microbes.)

The nature of experiment [13]: Inhibition of recombinant rat liver arginase.
Experiment [14] deals with Leishmania amazonensis. The experiment can be described thus: Antileishmanial activity against Leishmania amazonensis axenic promastigotes assessed as inhibition of parasite growth incubated for 72 hrs by MTT colorimetric assay. Type of experiment: functional, organism-based.
For experiment [15], the system named is Leishmania amazonensis. The experiment can be described thus: Antileishmanial activity against Leishmania amazonensis axenic amastigote assessed as inhibition of parasite growth incubated for 72 hrs by MTT colorimetric assay. Type of experiment: functional, organism-based.
Experiment [16] relates to Leishmania donovani. The experiment can be described thus: Antileishmanial activity against Leishmania donovani Ag83 amastigotes infected in BALB/c mouse macrophage assessed as cell viability incubated for 48 hrs by PI staining based analysis. Type of experiment: functional, organism-based. The following applies: Ag83, 48 h.
The next experiment deals with Leishmania mexicana. The experiment can be described thus: Antileishmanial activity against Leishmania mexicana promastigotes MHOM/B2/62/BEL21 assessed as reduction in parasite growth by tryphan blue staining based analysis. Type of experiment: functional, organism-based.
The next experiment addresses T2, DNA topoisomerase I (Leishmania donovani (strain BPK282A1), UniProt E9BRC0).
T2 sequence (E9BRC0 whole entry): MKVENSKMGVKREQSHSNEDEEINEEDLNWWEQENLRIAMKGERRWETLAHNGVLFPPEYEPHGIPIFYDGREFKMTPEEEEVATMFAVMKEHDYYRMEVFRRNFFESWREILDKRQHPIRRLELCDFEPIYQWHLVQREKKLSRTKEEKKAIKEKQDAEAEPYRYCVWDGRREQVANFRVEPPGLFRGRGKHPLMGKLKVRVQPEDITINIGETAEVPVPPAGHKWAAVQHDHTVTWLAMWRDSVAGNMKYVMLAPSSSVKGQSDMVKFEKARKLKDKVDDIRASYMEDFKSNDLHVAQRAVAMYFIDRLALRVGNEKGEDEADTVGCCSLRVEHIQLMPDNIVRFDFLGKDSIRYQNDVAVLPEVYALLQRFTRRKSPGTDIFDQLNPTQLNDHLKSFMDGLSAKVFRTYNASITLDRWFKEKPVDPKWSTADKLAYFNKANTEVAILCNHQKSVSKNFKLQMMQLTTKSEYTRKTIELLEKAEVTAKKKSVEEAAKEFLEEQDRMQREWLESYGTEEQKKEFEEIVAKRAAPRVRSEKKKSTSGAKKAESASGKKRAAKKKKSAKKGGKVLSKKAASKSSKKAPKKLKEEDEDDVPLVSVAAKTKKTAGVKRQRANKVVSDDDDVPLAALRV
The experiment can be described thus: Inhibition of Leishmania donovani DNA topoisomerase I.

Experiment [17] is described as follows: Inhibition of Leishmania braziliensis DNA topoisomerase I.
The test system of experiment [18] is Leishmania donovani. The experiment can be described thus: Antileishmanial activity against Leishmania donovani MHOM/IN/83/AG83 promastigotes infected in BALB/c mouse assessed as reduction of parasite burden in spleen at 20 mg/kg per day relative to control. Type of experiment: functional. On the set-up: scale not given: the % may be the effect or the level left.

≈ marks a conversion by molar mass, not a printed value.

The results in this text go back to ChEMBL document CHEMBL5620368, “Molecular-level strategic goals and repressors in Leishmaniasis - Integrated data to accelerate target-based heterocyclic scaffolds” (Eur J Med Chem, 2023).

A word on the IC50: it is the concentration that gives 50% inhibition. In the case of `O=C(c1ccc(Br)cc1)c1cc(O)cc(-c2ccc(Br)cc2)c1`, the values for the IC50 with Leishmania donovani [1] and with Leishmania donovani [2] were 11.5 µM and 6.01 µM, respectively. What is called Ki is the equilibrium dissociation constant of an inhibitor or competing ligand from its target. `O=C(/C=C/c1ccc(O)c(O)c1)O[C@@H](Cc1ccc(O)c(O)c1)C(=O)O` registered an IC50 on Arginase [3] of 28 µM. The Ki on Arginase [4] was found to be 1.3 µM. As for `COc1c(O)ccc2c1c[n+](C)c1c3cc4c(cc3ccc21)OCO4`, in the experiment on Leishmania amazonensis [5], the IC50 is 0.54 µM.

In general, EC50 refers to the concentration at which the effect is half-maximal. Turning to `NCCNCc1nccn1-c1ccc(-c2nc(CCc3cccc4ccccc34)cs2)c(OCCN2CCNC2=O)c1`, the EC50 in the experiment on Leishmania infantum [6] and with Leishmania infantum [8] was 12.8 µM each time. For the same compound, the half-maximal inhibitory concentration (IC50) in experiment [7] turned out to be 5.1 µM. For the compound `O=c1c(O)c(-c2ccc(O)c(O)c2)oc2cc(O)ccc12` [FISETIN], the half-maximal inhibitory concentration (IC50) on Arginase [3] came out at 1.4 µM. For orientation: inhibition means the relative decrease from the control value, in per cent. As to `O=C(/C=C/c1ccc(F)cc1)c1ccccc1Cl`, the inhibition stood at 72.3% with Leishmania infantum [9] and 74.1% in the experiment on Leishmania infantum [10].

For `O=c1cc(-c2ccc(O)c(O)c2)oc2c(C3OC(CO)[C@@H](O)[C@@H](O)[C@@H]3O)c(O)cc(O)c12` (stereo partly drawn), the IC50 with Leishmania amazonensis [11] was found to be 15.9 µM. With `O=C(CC12CC3CC(CC(C3)C1)C2)Nc1ccc([Se][Se]c2ccc(NC(=O)C34CC5CC(CC(C5)C3)C4)cc2)cc1`, the EC50 in the experiment with Leishmania infantum [12] was determined as 1.19 µM. Take `Oc1cc(O)c2c(c1)O[C@H](c1ccc(O)c(O)c1)[C@@H](O)C2` [CIANIDANOL]: the IC50 in [13] came to 1.8 µM. On to `CO[C@@]12[C@H](COC(N)=O)C3=C(C(=O)C(C)=C(N)C3=O)N1C[C@@H]1N[C@@H]12` [MITOMYCIN], for which the values for the IC50 with Leishmania amazonensis [14] and in the experiment on Leishmania amazonensis [15] were 12.8 µM and 11.5 µM, respectively.

For `Cc1cc2c(c(=O)[nH]1)C(=O)O/C2=C/c1ccccc1`, the EC50 in the experiment on Leishmania donovani [16] came to 1 µM. In the case of `COc1ccc(C(=O)/C=C/c2ccc([N+](=O)[O-])cc2)cc1`, the inhibition in the experiment on Leishmania infantum [9] came out at 69.5%; with Leishmania infantum [10], 70.4%. On to `Cc1ccc2c(c1)C1c3ccccc3CC1C(c1ccccn1)N2` (stereo not drawn), for which, in the experiment on Leishmania mexicana, the IC50 amounted to 1 µg/mL (≈ 3.2 µM). Regarding `Oc1cc(O)c2c(c1)O[C@@H](c1ccc(O)c(O)c1)[C@H](O)C2` [(-)-CATECHIN], in [13], the concentration for half-maximal inhibition (IC50) was 0.77 µM. In the case of `O=C1OC(c2ccc(Cl)cc2)c2cc(-c3ccc(Cl)cc3)cc(O)c21` (stereo not drawn), the IC50 was 9.81 µM with Leishmania donovani [1] and 5.4 µM in the experiment with Leishmania donovani [2]. On to `CC(=O)Cc1ccccc1C(F)(F)C(=O)NNc1ccccc1`, for which half-maximal inhibition against Arginase [3] (IC50) required 12.7 µM. Regarding `COc1cc2c3c(c1)Oc1c(OC)c(OC)c(OC)c4c1C(Cc1ccc(cc1)Oc1cc(ccc1OC)C[C@H]3N(C)CC2)N(C)CC4` (stereo partly drawn), half-maximal inhibition against DNA topoisomerase I (IC50) required 50 µM. On to `C/C=C1/CN(C)[C@H]2Cc3c([nH]c4ccccc34)[C@H](c3cc4[nH]c5c(c4cc3OC)CCN3C[C@@H]4C[C@H](CC)[C@H]3[C@@]5(C(=O)OC)C4)C[C@@H]1C2C(=O)OC` (stereo partly drawn), for which, in the experiment with Leishmania donovani [16], the half-maximal effective concentration (EC50) was 1.68 µM. As to `C[C@@H]1[C@H](O)[C@@H](C)/C=C/C=C/C=C/C=C/C=C/C=C/C=C/[C@H](O[C@@H]2O[C@H](C)[C@@H](O)[C@H](N)[C@@H]2O)C[C@@H]2O[C@](O)(C[C@@H](O)C[C@@H](O)[C@H](O)CC[C@@H](O)C[C@@H](O)CC(=O)O[C@H]1C)C[C@H](O)[C@H]2C(=O)O` [AMPHOTERICIN B], the IC50 with Leishmania mexicana is 0.036 µg/mL (≈ 0.039 µM). With `CCCCCC(C1=C(O)C(=O)c2ccccc2C1=O)C1=C(O)C(=O)c2ccccc2C1=O`, the IC50 in experiment [17] was determined as 5.2 µM. Consider `COc1ccc([C@@H]2Cc3cc(OC)c(O)cc3[C@H](CO)[C@@H]2COC2OCC(O)[C@@H](O)[C@H]2O)cc1O` (stereo partly drawn), for which the EC50 in the experiment with Leishmania donovani [16] is 1.84 µM. Regarding `COc1ccc(C(C2=C(O)C(=O)c3ccccc3C2=O)C2=C(O)C(=O)c3ccccc3C2=O)cc1`, in experiment [17], the IC50 is > 100 µM. For sodium antimony gluconate, in the experiment with Leishmania donovani [18], the Activity is 97%. `O=c1cc(-c2ccc(O)c(O)c2)oc2cc(O)cc(O)c12` [LUTEOLIN] gave an IC50 at Arginase [3] of 9 µM. Still for that read-out and setting: with `O=c1c(O)c(-c2ccc(O)c(O)c2)oc2cc(O)cc(O)c12` [QUERCETIN] the figure was 4.3 µM.
